Assay results reported in patent US5658890A, “C-nucleoside isostere of nicotinamide adenine dinucleotide, analogs thereof and use as anti-cancer agent” (Sloan-Kettering Institute for Cancer Research, priority 1995, dated 1997).
Like-named read-outs stand apart in the source and are kept apart here.

Tests used:
[1] = biological target: T1, horse liver alcohol dehydrogenase (ADH) (Equus caballus, UniProt P00327); assay: Inhibition of horse liver alcohol dehydrogenase (ADH), NADH absorbance at 340 nm; type: biochemical; details: for Ki: pH 8.0
T1 construct: horse liver alcohol dehydrogenase (ADH); from tissue; host or cells: horse liver
T1 sequence (P00327 whole entry): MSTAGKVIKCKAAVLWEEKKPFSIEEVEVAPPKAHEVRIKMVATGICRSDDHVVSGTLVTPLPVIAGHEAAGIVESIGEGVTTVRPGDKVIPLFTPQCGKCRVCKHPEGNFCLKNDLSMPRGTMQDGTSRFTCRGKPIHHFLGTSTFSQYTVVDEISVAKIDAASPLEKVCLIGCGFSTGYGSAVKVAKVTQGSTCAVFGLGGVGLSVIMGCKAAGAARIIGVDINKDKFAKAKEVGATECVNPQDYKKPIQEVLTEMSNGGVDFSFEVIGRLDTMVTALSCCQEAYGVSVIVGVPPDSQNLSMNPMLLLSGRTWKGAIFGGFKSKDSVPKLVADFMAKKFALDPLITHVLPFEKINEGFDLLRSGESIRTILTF
Method: 2. Inhibition of horse liver alcohol dehydrogenase (ADH) and bovine glutamate dehydrogenase (GDH) Rate measurements for each of the dehydrogenases used in this study are based on the spectral properties of NADH. […] Rates, using absorbance measurements, were calculated using a millimolar extinction coefficient of 6.22/cm for NADH. Alcohol dehydrogenase assays were run at pH 8.0, using 0.1M sodium phosphate buffer. […] All kinetic assays were run at least in duplicate. Initial values of inhibition constants were estimated from Lineweaver-Burk plots, using linear regression to obtain values for the slope and intercept of each line. Inhibition was judged to be competitive if the values obtained for the intercepts of the appropriate polots differed by less than three standard deviations as determined by linear regression. Values for the inhibition constant, Kis was obtained using the relationship: […] where S(+) and S(-) are the slopes of the plots in the presence and absence of inhibitor, respectively, and [I] is the concentration of total added inhibitor. Where a noncompetitive pattern of inhibition was observed, a similar analysis was used to obtain Kii. Km for conenzyme was obtained from the slope and intercept obtained in plots in the absence of inhibitor, using the relationship: Km =[…]. Values of effective inhibition constants and patterns of inhibition for CNAD binding to ADH were obtained by direct least-squares fits to the nonreciprocal forms of the Michaelis-Menten rate equations. Kinetic data were fit to the following relationships, assuming both competitive and noncompetitive inhibition respectively: vo =[…]]} vo =[…] vo is the initial reaction rate, Vm is the maximal rate, and Km and [A] the Michaelis constant and concentration of the variable substrate, respectively. The pattern of inhibition considered to best account for the observed data was that giving both the smallest residuals between observed and calculated values, and the smallest standard errors in the computed kinetics constants. […] Derivation of this rate equation assumes the presence of a tight binding inhibitor, i.e., that [I]~[E]. In this experiment both inhibitor and enzyme concentration were varied. Initial rates vo were measured at total concentrations of CNAD ([I]) of 0, 2.4, 9.6, and 19.2 nM over four concentrations of ADH ([E]). Concentrations of ethanol and NAD were fixed at 1.2 […] and 87 μM at pH 8.0. The apparent inhibition constant with respect to NAD, Ki', was then obtained by non-linear least-squares fit to the rate equation under the array of experimental conditions employed. The true rate constant Ki was obtained from the apparent rate constant Ki was obtained from the apparent rate constant Ki, via the relationship: […]

[2] = tested on: murine leukemia L1210 cells; assay: Cytotoxicity to murine leukemia L1210 cells; type: cell-based; details: Mus musculus, incubated 24 and 48 hr, cells counted in a Coulter counter, read-out: inhibits the proliferation of L1210 cells by 50% (IC50)
Method: 1. Cytoxicity of 5-(β-D-ribofuranosyl)nicotinamide-(5'-5")-adenosine pyrophosphate (Compound 2, CNAD) to murine leukemia L1210 cells.
Murine leukemia L1210 cells were grown in RPMI 1640 medium. Logarithmically growing cells were incubated with various concentrations of CNAD for 24 and 48 hr periods and the cytoxicity determined by counting the cells in a Coulter counter.

[3] = biological target: bovine glutamate dehydrogenase (GDH) (Bos taurus, UniProt P00366); assay: Inhibition of bovine glutamate dehydrogenase (GDH); type: biochemical
bovine glutamate dehydrogenase (GDH), sequence (P00366 58-558): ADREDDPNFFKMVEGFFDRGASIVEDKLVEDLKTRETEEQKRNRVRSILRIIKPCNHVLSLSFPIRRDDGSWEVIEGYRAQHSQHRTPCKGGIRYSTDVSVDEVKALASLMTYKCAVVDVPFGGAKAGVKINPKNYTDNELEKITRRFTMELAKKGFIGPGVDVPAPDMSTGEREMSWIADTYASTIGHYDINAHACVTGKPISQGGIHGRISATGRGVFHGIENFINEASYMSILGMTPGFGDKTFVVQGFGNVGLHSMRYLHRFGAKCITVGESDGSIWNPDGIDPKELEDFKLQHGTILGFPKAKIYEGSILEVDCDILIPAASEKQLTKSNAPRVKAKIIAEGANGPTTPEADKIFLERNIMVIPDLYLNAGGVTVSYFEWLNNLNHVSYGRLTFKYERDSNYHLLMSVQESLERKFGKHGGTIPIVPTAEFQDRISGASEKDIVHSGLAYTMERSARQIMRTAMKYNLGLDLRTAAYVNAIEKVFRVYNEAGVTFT
Method: 2. Inhibition of horse liver alcohol dehydrogenase (ADH) and bovine glutamate dehydrogenase (GDH)
Rate measurements for each of the dehydrogenases used in this study are based on the spectral properties of NADH. In assays with NAD as a substrate, rates were determined by measuring the increase in absorbance at 340 nm resulting from the conversion of NAD to NADH. Rates, using absorbance measurements, were calculated using a millimolar extinction coefficient of 6.22/cm for NADH.
Alcohol dehydrogenase assays were run at pH 8.0, using 0.1M sodium phosphate buffer. Glutamate dehydrogenase assays were at pH 7.0 in 0.1M sodium phosphate buffer, containing 10 μm EDTA. All kinetic assays were run at least in duplicate.
Initial values of inhibition constants were estimated from Lineweaver-Burk plots, using linear regression to obtain values for the slope and intercept of each line. Inhibition was judged to be competitive if the values obtained for the intercepts of the appropriate polots differed by less than three standard deviations as determined by linear regression. Values for the inhibition constant, Kis was obtained using the relationship:
where S(+) and S(-) are the slopes of the plots in the presence and absence of inhibitor, respectively, and [I] is the concentration of total added inhibitor. […]

[4] = tested on: inosine monophosphate dehydrogenase (IMPDH); assay: Inhibition of inosine monophosphate dehydrogenase by the NAD analog; type: biochemical
[5] = tested on: lactate dehydrogenase (LDH); assay: Inhibition of lactate dehydrogenase by the NAD analog; type: biochemical
[6] = tested on: malate dehydrogenase (MDH); assay: Inhibition of malate dehydrogenase by the NAD analog; type: biochemical
[7] = biological target: T2, Human IMPDH type II (Homo sapiens, UniProt P12268); assay: Inhibition of human IMPDH type II by TAD analogues; type: biochemical
T2 construct: Dr. George D. Markham, Institute for Cancer Research, Fox Chase Cancer Center, Fox Chase, Pa
Method: Purified human recombinant IMPDH-II was obtained from Dr. George D. Markham of the Institute for Cancer Research, Fox Chase Cancer Center, Fox Chase, Pa. Horse liver ADH was obtained in crystalline form from Boehringer Mannheim Biochemicals, Indianapolis. β-Nicotinamide adenine dinucleotide (NAD) in crystalline free acid form was also obtained from Boehringer. Inosine 5'-monophosphate (IMP) was purchased from Sigma Chemical Co., St. Louis as the disodium salt. All solutions were prepared using nano-pure water.
Kinetic constants of the inhibitors with respect to NAD were obtained by monitoring spectrophotometrically the rate of production of NADH during the reaction.
Human IMPDH type II was stored at -70° C. in buffer containing 20 mM KCl, 1 mM EDTA, 1 mM DTT and 20 mM Tris-HCl adjusted to pH 8 at 23° C. In preparation for the assays, a frozen aliquot was thawed rapidly and filtered through a 0.45 μm acetate filter. Protein concentration was determined from a Coomassie Assay. In some cases the enzyme was diluted 4:1 in similar 20 mM Tris buffer. NAD and IMP solutions were prepared based on molecular weight.
Combination of the reactants was performed as follows: An aliquot of substrate solution was pipetted down one side of a cuvet, one of co-factor down another side, and inhibitor down a third. The volume was brought to 990 μL with reaction buffer and the cuvet was agitated. This mixture was allowed to incubate in the spectrophotometer sample holder for five minutes before the reaction was started, the temperature held at 37° C. by a circulating water bath. The reaction was initiated by the introduction of 10 μL of enzyme solution on a mixing plunger, and NADH production was monitored for between two and 10 minutes, depending on the activity of the protein solution.
The uninhibited rate of reaction as a function of cofactor concentration was first established. Velocities at four NAD concentrations and saturating substrate concentrations were measured and Km for NAD obtained. Inhibitor was then introduced to the reaction mixture with an NAD concentration in the vicinity of Km.
Lineweaver-Burk plots were used to assess the quality of the data and to initially characterize the mode of inhibition with respect to NAD. […] Consequently, values of kii (intercept) and kis (slope) reported in Table I were obtained from direct least squares fits to the expression:
where vo is the measured initial rate, Vm is the maximum rate, Km is the Michaelis constant of NAD, and [A] is concentration of NAD.

[8] = biological target: T3, horse liver alcohol dehydrogenase (LADH) (Equus caballus, UniProt P00327); assay: Preliminary assays of horse liver alcohol dehydrogenase (LADH) inhibition; type: biochemical; details: ethanol 1.2 mM, pH 8, read-out: level of inhibition of horse liver alcohol dehydrogenase (LADH)
T3 construct: Horse liver ADH was obtained in crystalline form; purchased Boehringer Mannheim Biochemicals, Indianapolis; host or cells: horse liver
T3 sequence (P00327 whole entry): as the sequence (P00327 whole entry) above
Method: Purified human recombinant IMPDH-II was obtained from Dr. George D. Markham of the Institute for Cancer Research, Fox Chase Cancer Center, Fox Chase, Pa. Horse liver ADH was obtained in crystalline form from Boehringer Mannheim Biochemicals, Indianapolis. β-Nicotinamide adenine dinucleotide (NAD) in crystalline free acid form was also obtained from Boehringer. Inosine 5'-monophosphate (IMP) was purchased from Sigma Chemical Co., St. Louis as the disodium salt. All solutions were prepared using nano-pure water. Kinetic constants of the inhibitors with respect to NAD were obtained by monitoring spectrophotometrically the rate of production of NADH during the reaction. The course of the reaction was followed by measuring the changing absorbance of the reaction mixture at 340 nm, the absorbance peak for NADH, using a Beckman DU-65 spectrophotometer, and an extinction of 6.22 A mM^-1 cm^-1 for the reduced cofactor.(51) Preliminary assays of alcohol dehydrogenase were performed in a similar manner to that described above. LADH in crystalline suspension was spun down to a pellet and dissolved in 100 mM Tris-HCl buffer containing 100 mM KCl adjusted to pH 8 at 23° C. Stock solutions of NAD and ethanol were prepared in buffer based on molecular weight and volume, respectively. Ethanol was introduced as an aliquot of stock solution and its concentration was kept constant at 1.2 mM while NAD concentration was varied by serial dilution of the stock solution.

[9] = tested on: cell membranes; details: compared with tiazofurin; personal communication (ref. 35); cited from earlier work
[10] = IMPDH type II, read-out: Kis (binding)
[11] = NAD variable substrate, IMP constant at 100 μM, non-competitive, 37° C., read-out: Kii
[12] = NAD variable substrate, IMP constant at 100 μM, non-competitive, 37° C., read-out: Kis

Ki [7, 10] [µM] | Ki [7, 11] [µM] | Ki [7, 12] [µM] | Ki [8] [µM] | SMILES | pattern of inhibition of ADH with respect to NAD [1] | also measured
 |  |  |  | NC(=O)c1cccc([C@@H]2O[C@H](COP(=O)(O)OP(=O)(O)OC[C@H]3O[C@@H](n4cnc5c(N)ncnc54)[C@H](O)[C@@H]3O)[C@@H](O)[C@H]2O)n1 [C-PAD, 6-(β-D-ribofuranosyl)picolinamide-(5'-5")adenosine pyrophosphate] | competitive | Ki ([1]; competitive, read-out: Ki, inhibition of ADH with respect to NAD): 20 µM
 |  |  |  | NC(=O)c1cncc([C@@H]2O[C@H](COP(=O)(O)OP(=O)(O)OC[C@H]3O[C@@H](n4cnc5c(N)ncnc54)[C@H](O)[C@@H]3O)[C@@H](O)[C@H]2O)c1 [CNAD, 5-(β-D-ribofuranosyl)nicotinamide-(5'-5")-adenosine pyrophosphate] | non-competitive | IC50 [2]: 7 µM; inhibitory activity against alcohol dehydrogenase from horse liver (in words) [1]: highly potent and selective inhibitory activity; Ki ([1]; direct least-squares fit to Michaelis-Menten rate equations, read-out: apparent Ki (Ki') with respect to NAD): 0.006 µM; Ki ([1]; non-competitive, with respect to NAD, read-out: Ki, inhibition of ADH): 0.002 µM; pattern of inhibition of GDH with respect to NAD [3]: competitive; Ki ([3]; competitive, pH 7.0): 15 µM; pattern of inhibition of IMPDH with respect to NAD [4]: competitive; pattern of inhibition of LDH with respect to NAD [5]: competitive; pattern of inhibition of MDH with respect to NAD [6]: competitive
0.5 | 0.5 ± 0.1 | 6 ± 12 | 100 | NC(=O)c1csc([C@@H]2O[C@H](COP(=O)(O)OP(=O)(O)OC[C@H]3O[C@@H](n4cnc5c(N)ncnc54)[C@H](F)[C@@H]3O)[C@@H](O)[C@H]2O)n1 [Compound 3, P^1-(Tiazofurin-5'-yl)-P^2-(2'-deoxy-2'-fluoroadenosin 5'-yl)pyrophosphate] |  | 
0.7 | 0.7 ± 0.1 | 1.5 ± 0.6 | 100 | NC(=O)c1csc([C@@H]2O[C@H](COP(=O)(O)OP(=O)(O)OC[C@H]3O[C@@H](n4cnc5c(N)ncnc54)[C@H](O)[C@@H]3F)[C@@H](O)[C@H]2O)n1 [Compound 4, P^1-(Tiazofurin-5'-yl)-P^2-(3'-deoxy-3'-fluoroadenosin-5'-yl)pyrophosphate] |  | 
2.9 | 2.9 ± 0.5 | 13 | > 10000 | NC(=O)c1csc([C@@H]2O[C@H](COP(=O)(O)OP(=O)(O)OC[C@H]3O[C@@H](n4cnc5c(N)ncnc54)[C@@H](F)[C@@H]3O)[C@@H](O)[C@H]2O)n1 [Compound 5] |  | 
 | 0.17 ± 0.03 | 0.3 ± 0.2 |  | NC(=O)c1csc([C@@H]2O[C@H](COP(=O)(O)C(F)(F)P(=O)(O)OC[C@H]3O[C@@H](n4cnc5c(N)ncnc54)[C@H](O)[C@@H]3O)[C@@H](O)[C@H]2O)n1 [β-CF2 -TAD, β-difluoromethylene TAD] |  | Ki ([7]; IMPDH type II, read-out: Ki): 0.17 µM; penetration of cell membranes [9]: can penetrate cell membranes although not as efficiently as tiazofurin
